We go through one molecule from patent US10624895B2, “Methods of sensitizing a patient with glioma to a therapeutic agent by administering small hairpin RNA targeting PDZ-RHOGEF” (THE TRANSLATIONAL GENOMICS RESEARCH INSTITUTE, priority 2016, dated 2020).

What all share (format): cell-based, human
In one series the test system is cleaved PARP. Put plainly: Immunoblot for cleaved PARP (TMZ-induced apoptosis). The conditions noted are these: T98G cells, PPF (5 μM) in combination with TMZ (250 μM), compared to TMZ alone. As to the method:
FIGS. 26A, 26B, and 26C depict that PPF sensitizes GBM cells to TMZ and radiotherapy. FIG. 26A—A clonogenic assay was used to assess T98G and GBM43 cells survival after TMZ and radiation treatment. Cells were pre-treated with 5 μM PPF for 24 hours, and then either treated with 250 μM TMZ for 24 hours or exposed to 2 Gy radiation. Graph depicts the surviving fraction in the treated cells compared to vehicle (VC) treated or non-treated (NT) cells, **p<0.01. FIG. 26B—T98G glioma cells were treated with vehicle, PPF (5 μM) TMZ (250 μM) and PPF in combination with TMZ. TMZ-induced apoptosis was assayed by immunoblot analysis of cell lysates with an antibody to cleaved PARP. Immunoblotting for α-Tubulin was included as a loading control. FIG. 26C—T98G, GBM10, and GBM43 cells were treated with PPF ([…], and then immunoblotted to assess the activation of AKT and NF-κB. Immunoblotting for β-Actin is included as a loading control.
Referring now to FIGS. 26A, 26B, and 26C: Knockdown of TROY expression with shRNA decreases TMZ resistance in GBM cells in vitro (See Reference 42). […] Following combination therapy, cells were trypsinized, counted, and plated in a 6-well culture dish at densities of 100, 250, and 500 cells per well in triplicate. Cells were incubated for 12 days then fixed, stained with 0.5% crystal violet solution, and counted manually by blinded observers. […]
Background: A western blot detects proteins with antibodies after separation by electrophoresis.

The subject of series [1] is T98G, GBM10, and GBM43 cells. Put plainly: CellTiterGlo cytotoxicity assay. The conditions noted are these: 0.5 to 20 μM PPF, 72 hours. As to the method:
FIG. 25A—T98G, GBM43, and GBM10 cells were incubated with increasing concentrations of PPF (0, 5, 50, and 500 After 0, 48, 96 and 144 hours of treatment, cell were trypsinized and counted using an automated cell counter. FIG. 25B—GBM43, GBM10, and T98G glioma cells were treated with increasing doses of PPF (0.5, 1, 5, 10, and 20 μM) in triplicate. The CellTiterGlo® (Promega) reagent was used to measure survival. Raw values were normalized on a plate-by-plate basis such that 100% cell viability was equivalent to the mean of vehicle wells and 0% cell viability was equivalent to the mean of the MG132 positive control. The normalized data was used to assess viability of glioma cells after PPF treatment.
Referring now to FIGS. 25A and 25B: To determine if PPF influences glioma cell proliferation, the inventors treated T98G, GBM10, and GBM43 cells with increasing concentrations of PPF and evaluated cell proliferation over the course of 144 hours. Briefly, 1.25×10^5 cells were seeded (n=3) in 12-well plates in 1 mL of DMEM supplemented with 10% FBS and allowed to attach at 37° C. for 16 hrs. […] After 0, 48, 96 and 144 hours of treatment, the cells were trypsinized and counted using the automated cell counter. […] Subsequently, 100 μL of CellTiterGlo® reagent was added to each well and luminescence was measured using Envision Reader. […]
(In ATP-based viability assays light output follows the ATP content of the culture.)

The subject of another series is Rac1. Put plainly: Rac1 activation assay after PPF. To be noted: T98G cells, 5 μM PPF 1 hour, then 10% FBS. As to the method:
FIGS. 27A and 27B depict that PPF suppresses GBM cell invasion and Rac1 activation. FIG. 27A—T98G, GBM10, and GBM43 glioma cells were treated with 5 μM PPF and invasion was assayed over 24 hours utilizing a Matrigel® invasion assay, *p<0.05. FIG. 27B—T98G glioma cells were serum starved, pre-incubated with 5 μM PPF or vehicle for 1 hour, and then stimulated with 10% FBS for 2-10 mins. Cell lysates were harvested and equal concentrations of protein were assessed for Rac1 activation.
Referring now to FIGS. 27A and 27B: The inventors next examined whether PPF inhibited TROY dependent glioma cell invasion. […] Briefly, 5.0×10^5 cells glioma cells were seeded in 100-mm diameter culture dishes and incubated overnight at 37° C. Subsequently, cells were serum starved for 16 hours at 37° C. Cells were then harvested, re-suspended in growth factor reduced Matrigel® (Becton Dickinson) (1.0×10^5 cells/50 μL), added in triplicates to collagen-coated transwell chambers, and allowed to invade through Matrigel® in presence of 10% FBS and/or 5 μM PPF. After incubation for 24 hours at 37° C. non-invaded cells were scrapped off the upper side of the membrane and cells invaded to the other side of the membrane were fixed with 4% paraformaldehyde (PFA) (Affymetrix) and stained with DAPI (Invitrogen). Nuclei of invaded cells were counted in five high power fields (HPF) with a 20× objective.

The structures appear in SMILES notation.

As to `CCCn1cnc2c1c(=O)n(CCCCC(C)=O)c(=O)n2C` [PPF, 3-methyl-1-(5-oxohexyl)-7-propyl-3,7-dihydro-1H-purine-2,6-dione], the “cleaved PARP” value with cleaved PARP is recorded as “increase in cleaved PARP”. The cell viability result in series [1] is on record as “negligible loss of cell viability”. Further, the Rac1 activation entry with Rac1 is on record as “inhibited Rac1 activation”.
